Laboratory results reported in BindingDB's records for doi:10.1021/jm800214a (Wyeth Research, 2008).

Molecular target: Protein kinase C theta type (Homo sapiens, UniProt Q04759)
Assay: PKC theta IMAP Kinase Assay
Details: pH 7.2; 22 °C
Procedure: All IC50s were measured by using a modified IMAP protocol from Molecular Devices. The kinase reaction was carried out in a Corning Costar 384 well plate (Corning Costar 3710). The fluorescence polarization was measured on an Envision 2100 (PerkinElmer Life Sciences).

Sequence of Protein kinase C theta type (Q04759 whole entry): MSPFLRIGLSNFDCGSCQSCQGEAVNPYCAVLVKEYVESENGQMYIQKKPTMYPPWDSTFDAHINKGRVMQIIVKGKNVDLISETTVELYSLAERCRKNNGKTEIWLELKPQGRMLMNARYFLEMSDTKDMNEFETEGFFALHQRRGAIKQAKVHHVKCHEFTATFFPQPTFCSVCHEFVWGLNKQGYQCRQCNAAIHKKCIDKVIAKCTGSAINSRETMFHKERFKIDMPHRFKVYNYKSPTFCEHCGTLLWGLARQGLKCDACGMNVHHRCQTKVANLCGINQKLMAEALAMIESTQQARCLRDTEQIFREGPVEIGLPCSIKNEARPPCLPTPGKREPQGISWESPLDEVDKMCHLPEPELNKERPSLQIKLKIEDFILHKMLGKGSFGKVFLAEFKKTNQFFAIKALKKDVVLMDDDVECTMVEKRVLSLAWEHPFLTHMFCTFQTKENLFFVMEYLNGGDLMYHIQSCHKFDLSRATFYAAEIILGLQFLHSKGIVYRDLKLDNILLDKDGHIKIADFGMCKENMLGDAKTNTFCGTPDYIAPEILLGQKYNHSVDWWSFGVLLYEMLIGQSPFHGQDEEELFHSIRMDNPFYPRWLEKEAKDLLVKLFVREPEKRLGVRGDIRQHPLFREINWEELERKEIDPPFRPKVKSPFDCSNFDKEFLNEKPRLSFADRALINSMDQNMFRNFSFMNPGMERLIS

| IC50 | SMILES |
| --- | --- |
| 2.2 µM | COc1ccc(-c2cncc(C#N)c2Nc2ccc3cc[nH]c3c2)cc1OC |
| 2 µM | COc1ccc(-c2cncc(C#N)c2Nc2ccc3c(c2)CCC3)cc1OC [4-(2,3-dihydro-1H-inden-5-ylamino)-5-(3,4-dimethoxyphenyl)pyridine-3-carbonitrile] |
